Data reported in patent US6743804B2, “Quinoline derivatives as NK3 antagonists” (SmithKline Beecham S p.A., priority 1996, dated 2004).
Structures can show the parent of a compound that is named as a salt.

Test system: not given
Experiment: not given
For `COC(=O)[C@H](NC(=O)c1cc(-c2ccccc2)nc2ccccc12)c1ccc(O)cc1` (as salt: HCl) [Example 83, (R)-N-[α-(methoxycarbonyl)-4-hydroxybenzyl]-2-phenylquinoline-4-carboxamide], the melting point was 140 °C (dec.).
Compound `COC(=O)[C@H](NC(=O)c1cc(-c2ccccc2)nc2ccccc12)C1=CCC=CC1` [Example 16] has a melting point of 120 to 122 °C.
Compound `C[C@H](O)[C@H](NC(=O)c1cc(-c2ccccc2)nc2ccccc12)c1ccccc1` [Example 17, (R,S)-N-[α-(1-hydroxyethyl)benzyl]-2-phenylquinoline-4-carboxamide] has a melting point of 204 to 205 °C.
`CCC(NC(=O)c1c(OC)c(-c2ccccc2)nc2ccccc12)c1ccccc1` (centres unmarked) [Example 18] showed a melting point of 164 to 165 °C.
Compound `CCCCc1c(-c2ccccc2)nc2ccccc2c1C(=O)NC(CC)c1ccccc1` (centres unmarked) [Example 19] has a melting point of 147 to 150 °C.
In the case of `COC(=O)C(NC(=O)c1c2c(nc3ccccc13)-c1ccccc1CCC2)c1ccccc1` (centres unmarked) [Example 20], the melting point is reported as 186 to 188 °C.
`COC(=O)C(NC(=O)c1cc(-c2ccccc2OC)nc2ccccc12)c1ccccc1` (centres unmarked) [Example 24] showed a melting point of 124 to 125 °C.
`CCC(NC(=O)c1c(-c2ccccc2)c(-c2ccccc2)nc2ccccc12)c1ccccc1` (centres unmarked) [Example 25] showed a melting point of 198 to 200 °C.
Work on `COC(=O)C(NC(=O)c1cc(-c2ccccc2F)nc2ccccc12)c1ccccc1` (centres unmarked) [Example 26] yielded a melting point of 146 to 147 °C.
`CCC(NC(=O)c1cc(-c2ccccc2)nc2ccccc12)c1ccc(Cl)c(Cl)c1` (centres unmarked) [Example 27] gave a melting point of 193 to 194 °C.
With `O=C(NC(CO)c1ccccc1)c1cc(-c2ccccc2)nc2ccccc12` (centres unmarked) [Example 28] the melting point was 117 to 119 °C.
With `COC(=O)C(NC(=O)c1c(C)c(-c2ccccc2)nc2ccccc12)c1ccccc1` (centres unmarked) [Example 30] the melting point was 180 to 181 °C.
`COC(=O)C(NC(=O)c1cc(-c2ccccc2)nc2cc(Cl)ccc12)c1ccccc1` (centres unmarked) [Example 32] showed a melting point of 180 to 183 °C.
With `COC(=O)C(NC(=O)c1cc(-c2ccccc2)nc2ccc(C)cc12)c1ccccc1` (centres unmarked) [Example 33] the melting point was 179 to 181 °C.
`COCC(NC(=O)c1cc(-c2ccccc2)nc2ccccc12)c1ccccc1` (centres unmarked) [Example 34] showed a melting point of 144 to 145 °C.
In the case of `COC(=O)C(NC(=O)c1cc(-c2ccccc2)nc2ccc(Cl)cc12)c1ccccc1` (centres unmarked) [Example 35], the melting point is reported as 197 to 199 °C.
With `CCc1c(-c2ccccc2)nc2ccccc2c1C(=O)NC(C(=O)OC)c1ccccc1` (centres unmarked) [Example 36] the melting point was 156 to 157 °C.
Compound `CCCC(NC(=O)c1cc(-c2ccccc2)nc2ccccc12)c1ccccc1` (centres unmarked) [Example 37] has a melting point of 149 to 150 °C.
Work on `CCc1c(-c2ccccc2)nc2ccccc2c1C(=O)NC(CC)c1ccccc1` (centres unmarked) [Example 38] yielded a melting point of 158 to 159 °C.
Compound `CCC(NC(=O)c1c(N2C(=O)c3ccccc3C2=O)c(-c2ccccc2)nc2ccccc12)c1ccccc1` (centres unmarked) [Example 39] has a melting point of 201 to 202 °C.
`CCCc1c(-c2ccccc2)nc2ccccc2c1C(=O)NC(CC)c1ccccc1` (centres unmarked) [Example 40] gave a melting point of 149 to 151 °C.
Compound `CC[C@H](NC(=O)c1c(C)c(-c2ccc(Br)cc2)nc2ccc(Br)cc12)c1ccccc1` [Example 41] has a melting point of 230 to 231 °C.
`CC[C@H](NC(=O)c1c(C)c(-c2ccccc2)nc2ccc(Br)cc12)c1ccccc1` [Example 42] gave a melting point of 179 to 180 °C.
In the case of `COC(=O)C(NC(=O)c1cc(-c2ccccc2)nc2ccc(OC)cc12)c1ccccc1` (centres unmarked) [Example 43], the melting point is reported as 209 to 211 °C.
For `COC(=O)C(NC(=O)c1cc(-c2cc3ccccc3o2)nc2ccccc12)c1ccccc1` (centres unmarked) [Example 44], the melting point was 240 to 241 °C.
For `O=C(NC(Cc1ccccc1)c1ccccc1)c1cc(-c2ccccc2)nc2ccccc12` (centres unmarked) [Example 45], the melting point was 194 to 196 °C.
`O=C(NC(c1ccccc1)C(F)(F)F)c1cc(-c2ccccc2)nc2ccccc12` (centres unmarked) [Example 46] showed a melting point of 180 to 181 °C.
`CC[C@H](NC(=O)c1c(OC)c(-c2ccccc2)nc2ccccc12)c1ccccc1` [Example 47] gave a melting point of 132 to 134 °C.
`CCc1c(-c2ccccc2)nc2ccccc2c1C(=O)N[C@@H](CC)c1ccccc1` [Example 48] showed a melting point of 118 to 120 °C.
In the case of `CCC(NC(=O)c1cc(-c2ccccc2)nc2ccccc12)c1ccc(Cl)cc1` (centres unmarked) [Example 49], the melting point is reported as 177 to 178 °C.
`COC(=O)C(c1ccccc1)N(C)C(=O)c1cc(-c2ccccc2)nc2ccccc12` (centres unmarked) [Example 50] gave a melting point of 128 to 129 °C.
`COC(=O)C(NC(=O)c1cc(-c2ccsc2)nc2ccccc12)c1ccccc1` (centres unmarked) [Example 51] gave a melting point of 169 to 171 °C.
With `COC(=O)C(NC(=O)c1c2c(nc3ccccc13)-c1ccccc1CC2)c1ccccc1` (centres unmarked) [Example 52] the melting point was 217 to 219 °C.
In the case of `COC(=O)C(NC(=O)c1cc(-c2ccc[nH]2)nc2ccccc12)c1ccccc1` (centres unmarked) [Example 53], the melting point is reported as 181 to 182 °C.
With `COC(=O)C(NC(=O)c1cc(-c2nccs2)nc2ccccc12)c1ccccc1` (centres unmarked) [Example 54] the melting point was 209 to 211 °C.
With `CCCCC(NC(=O)c1cc(-c2ccccc2)nc2ccccc12)c1ccccc1` (centres unmarked) [Example 56] the melting point was 155 to 156 °C.
With `COC(=O)C(NC(=O)c1cc(-c2ccc(C)cc2)nc2ccccc12)c1ccccc1` (centres unmarked) [Example 57] the melting point was 172 to 174 °C.
With `COC(=O)C(NC(=O)c1cc(-c2ccccc2C)nc2ccccc12)c1ccccc1` (centres unmarked) [Example 59] the melting point was 180 to 182 °C.
With `COC(=O)C(NC(=O)c1cc(-c2ccc(OC)cc2)nc2ccccc12)c1ccccc1` (centres unmarked) [Example 60] the melting point was 182 to 183 °C.
In the case of `O=C(NC1(c2ccccc2)CCCC1)c1cc(-c2ccccc2)nc2ccccc12` [Example 61], the melting point is reported as 164 to 165 °C.
`COC(=O)C(NC(=O)c1cc(-c2ccc(O)cc2)nc2ccccc12)c1ccccc1` (centres unmarked) [Example 62] showed a melting point of 226 to 227 °C.
For `COC(=O)C(NC(=O)c1cc(-c2ccc3c(c2)OCO3)nc2ccccc12)c1ccccc1` (centres unmarked) [Example 63], the melting point was 186 to 187 °C.
`CC(C)(NC(=O)c1cc(-c2ccccc2)nc2ccccc12)c1ccccc1` [Example 64] showed a melting point of 173 to 174 °C.
`CCC(NC(=O)c1cc(-c2ccccc2)nc2ccccc12)c1ccc(C)cc1` (centres unmarked) [Example 65] showed a melting point of 160 to 162 °C.
For `COC(=O)C(NC(=O)c1cc(-c2cc[nH]c2)nc2ccccc12)c1ccccc1` (centres unmarked) [Example 66], the melting point was 202 to 204 °C.
With `COC(=O)C(NC(=O)c1cc(-c2ccc(Cl)c(Cl)c2)nc2ccccc12)c1ccccc1` (centres unmarked) [Example 67] the melting point was 164 to 165 °C.
`NC[C@H](NC(=O)c1cc(-c2ccccc2)nc2ccccc12)c1ccccc1` [Example 68] showed a melting point of 139 to 141 °C.
`CC[C@H](NC(=O)c1c(Cl)c(-c2ccccc2)nc2ccccc12)c1ccccc1` [Example 70] gave a melting point of 137 to 139 °C.
`CC[C@H](NC(=O)c1c(Br)c(-c2ccccc2)nc2ccccc12)c1ccccc1` [Example 71] showed a melting point of 119 to 122 °C.
With `CC(C)C(NC(=O)c1cc(-c2ccccc2)nc2ccccc12)c1ccccc1` (centres unmarked) [Example 72] the melting point was 165 to 166 °C.
Work on `COC(=O)C(NC(=O)c1cc(-c2ccccc2)nc2ccc(F)cc12)c1ccccc1` (centres unmarked) [Example 75] yielded a melting point of 174 to 176 °C.
With `COC(=O)C(NC(=O)c1cc(C2CCCCC2)nc2ccccc12)c1ccccc1` (centres unmarked) [Example 76] the melting point was 151 to 153 °C.
For `COC(=O)C(NC(=O)c1cc(-c2cccc(Cl)c2)nc2ccccc12)c1ccccc1` (centres unmarked) [Example 77], the melting point was 161 to 163 °C.
In the case of `COC(=O)C(NC(=O)c1cc(-c2ccccc2Cl)nc2ccccc12)c1ccccc1` (centres unmarked) [Example 78], the melting point is reported as 175 to 178 °C.
Work on `COC(=O)C(NC(=O)c1cc(-c2ccccc2)nc2c(OC(C)=O)cccc12)c1ccccc1` (centres unmarked) [Example 80] yielded a melting point of 193 to 194 °C.
Compound `COC(=O)C(NC(=O)c1cc(-c2ccccc2)nc2c(O)cccc12)c1ccccc1` (centres unmarked) [Example 81] has a melting point of 178 to 180 °C.
In the case of `COC(=O)C(NC(=O)c1cc(-c2ccc(Cl)cc2Cl)nc2ccccc12)c1ccccc1` (centres unmarked) [Example 82], the melting point is reported as 142 to 143 °C.
In the case of `O=C(NC(c1ccccc1)c1ccccc1)c1cc(-c2ccccc2)nc2ccccc12` [Example 84], the melting point is reported as 182 to 184 °C.
`COC(=O)[C@H](NC(=O)c1c(O)c(-c2ccccc2)nc2ccccc12)c1ccccc1` [Example 87] showed a melting point of 125 to 127 °C.

Target: T1, guinea-pig NK3 receptors (Cavia porcellus, UniProt P30098)
T1 sequence (P30098 1-440): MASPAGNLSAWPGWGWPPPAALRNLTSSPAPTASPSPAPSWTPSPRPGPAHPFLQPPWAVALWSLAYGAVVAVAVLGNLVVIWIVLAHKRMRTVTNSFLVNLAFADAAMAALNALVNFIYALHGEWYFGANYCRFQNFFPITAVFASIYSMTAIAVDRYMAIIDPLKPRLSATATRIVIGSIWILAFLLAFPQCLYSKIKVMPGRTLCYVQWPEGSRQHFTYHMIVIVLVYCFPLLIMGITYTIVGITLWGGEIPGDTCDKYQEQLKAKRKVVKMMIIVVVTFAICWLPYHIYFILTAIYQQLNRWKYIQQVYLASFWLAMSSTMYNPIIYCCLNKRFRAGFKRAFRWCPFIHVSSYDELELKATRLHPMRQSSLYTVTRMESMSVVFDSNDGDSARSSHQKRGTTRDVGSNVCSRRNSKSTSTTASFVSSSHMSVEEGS
Experiment: Radioligand binding to guinea-pig NK3 receptors (guinea-pig cortex membranes, displacement of [3H]-Senktide or [125I]-[Me-Phe7]-NKB)
Procedure: The activity of the compounds of the present invention, as NK3 ligands, is determined by their ability to inhibit the binding of the radiolabelled NK3 ligands, [^125I]-[Me-Phe^7]-NKB or [^3H]-Senktide, to guinea-pig and human NK3 receptors (Renzertti et al, 1991, Neuropeptide, 18, 104-114; Buell et al, 1992, FEBS, 299(1), 90-95; Chung et al, 1994, Biochem. Biophys. Res. Commun., 198(3), 967-972). The binding assays utilized allow the determination of the concentration of the individual compound required to reduce by 50% the [^125I]-[Me-Phe^7]-NKB and [^3H]-Senktide specific binding to NK3 receptor in equilibrium conditions (IC50). Binding assays provide for each compound tested a mean IC50 value of 2-5 separate experiments performed in duplicate or triplicate. […] The NK3-antagonist activity of the compounds of the present invention is determined by their ability to inhibit senktide-induced contraction of the guinea-pig ileum (Maggi et al, 1990, Br. J. Pharmacol., 101, 996-1000) and rabbit isolated iris sphincter muscle (Hall et al., 1991, Eur. J. Pharmacol., 199, 9-14) and human NK3 receptors-mediated Ca^++ mobilization (Mochizuki et al, 1994, J. Biol. Chem., 269, 9651-9658). Guinea-pig and rabbit in-vitro functional assays provide for each compound tested a mean KB value of 3-8 separate experiments, where KB is the concentration of the individual compound required to produce a 2-fold rightward shift in the concentration-response curve of senktide. Human receptor functional assay allows the determination of the concentration of the individual compound required to reduce by 50% (IC50 values) the Ca^++ mobilization induced by the agonist NKB.
`CC[C@H](NC(=O)c1c(C)c(-c2ccccc2)nc2ccccc12)c1ccccc1` [Example 22] showed a Ki of 5.6 nM.
`CC[C@H](NC(=O)c1c(OC)c(-c2ccccc2)nc2ccccc12)c1ccccc1` [Example 47] showed a Ki of 8.8 nM.
`CCc1c(-c2ccccc2)nc2ccccc2c1C(=O)N[C@@H](CC)c1ccccc1` [Example 48] showed a Ki of 12 nM.
